This is an account of results in ChEMBL document CHEMBL1201862, “PubChem BioAssay data set” (2004).

The source made the active and inactive calls. Bounds are passed on as bounds.

Assay [1] deals with T1, Heat shock factor protein 1 (Mus musculus, UniProt P38532).
T1 sequence (P38532 whole entry): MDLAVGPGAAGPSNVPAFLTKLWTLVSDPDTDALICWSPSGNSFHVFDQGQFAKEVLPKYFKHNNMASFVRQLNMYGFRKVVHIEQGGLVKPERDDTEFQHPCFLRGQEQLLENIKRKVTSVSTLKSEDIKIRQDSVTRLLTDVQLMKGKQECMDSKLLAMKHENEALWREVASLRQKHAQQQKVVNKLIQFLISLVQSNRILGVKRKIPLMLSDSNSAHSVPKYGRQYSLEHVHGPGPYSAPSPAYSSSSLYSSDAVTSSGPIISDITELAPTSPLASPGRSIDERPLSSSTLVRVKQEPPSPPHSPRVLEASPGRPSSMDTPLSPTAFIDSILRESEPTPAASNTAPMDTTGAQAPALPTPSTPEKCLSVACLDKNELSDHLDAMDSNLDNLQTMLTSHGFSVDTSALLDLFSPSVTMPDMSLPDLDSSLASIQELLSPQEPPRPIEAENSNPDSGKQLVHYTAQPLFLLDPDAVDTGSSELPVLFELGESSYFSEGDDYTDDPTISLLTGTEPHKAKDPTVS
The experiment in a line: decrease of HSF1-responsive luciferase luminescence – cell-based, NIH3T3, dose retest, confirmation (AID 2382).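 Also: NIH3T3 fibroblasts with HSF1-driven luciferase reporter stressed by proteasome inhibitor MG132; luminescence from HSF1-driven luciferase expression after 8 hours of MG132 stress.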 It is filed as functional.

A further assay deals with BJ. The experiment in a line: growth inhibition of engineered Ras-driven BJ cells – cell-based, alamar blue fluorescence, cherrypicked samples, dose response (AID 2631).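 Also: confirmatory dose-response assay in RAS-dependent BJ fibroblasts engineered with TERT, LT and ST, with cytotoxicity read by fluorescence.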 Particulars: Homo sapiens. It is filed as functional.
Assay [2] has as its target DNA damage-inducible transcript 3 protein (Mus musculus, UniProt P35639). It is filed as functional, Cricetulus griseus.
In assay [3] the target is T2, Sentrin-specific protease 7 (Homo sapiens, UniProt Q9BQF6).
T2 sequence (Q9BQF6 whole entry): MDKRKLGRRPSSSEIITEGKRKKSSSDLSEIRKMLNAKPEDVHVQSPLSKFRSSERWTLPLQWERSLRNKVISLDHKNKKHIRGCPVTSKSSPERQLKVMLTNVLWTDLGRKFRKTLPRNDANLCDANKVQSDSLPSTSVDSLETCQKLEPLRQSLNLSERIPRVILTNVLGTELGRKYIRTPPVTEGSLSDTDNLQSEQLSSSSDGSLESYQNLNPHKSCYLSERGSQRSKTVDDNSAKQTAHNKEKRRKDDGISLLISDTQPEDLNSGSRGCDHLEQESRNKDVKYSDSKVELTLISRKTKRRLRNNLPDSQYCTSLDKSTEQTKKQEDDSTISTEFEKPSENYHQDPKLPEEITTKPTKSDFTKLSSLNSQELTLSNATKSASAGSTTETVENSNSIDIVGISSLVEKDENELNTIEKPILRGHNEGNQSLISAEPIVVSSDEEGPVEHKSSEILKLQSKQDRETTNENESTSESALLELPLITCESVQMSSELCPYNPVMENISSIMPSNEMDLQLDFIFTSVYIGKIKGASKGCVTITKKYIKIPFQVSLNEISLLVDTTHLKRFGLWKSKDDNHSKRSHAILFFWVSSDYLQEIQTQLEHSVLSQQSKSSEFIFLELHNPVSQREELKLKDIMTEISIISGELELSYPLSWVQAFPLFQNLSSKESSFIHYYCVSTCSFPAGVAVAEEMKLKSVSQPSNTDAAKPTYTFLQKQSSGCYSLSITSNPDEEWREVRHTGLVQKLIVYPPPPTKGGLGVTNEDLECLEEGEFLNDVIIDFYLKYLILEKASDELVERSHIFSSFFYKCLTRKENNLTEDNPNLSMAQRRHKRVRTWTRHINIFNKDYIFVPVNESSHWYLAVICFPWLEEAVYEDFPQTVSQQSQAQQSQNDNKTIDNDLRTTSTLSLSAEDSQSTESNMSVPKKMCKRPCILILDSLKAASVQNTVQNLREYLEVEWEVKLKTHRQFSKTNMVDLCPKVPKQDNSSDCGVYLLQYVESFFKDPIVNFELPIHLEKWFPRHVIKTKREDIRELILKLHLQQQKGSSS
The experiment in a line: inhibition of human SENP7 cleavage activity – biochemical, luminescence, set 2, SAR follow-up (AID 588600). It is filed as functional.

Assay [4] in a line: viability of BHK-21 cells – cell-based, secondary screen, cytotoxicity control for flavivirus guanylyltransferase probe project (AID 624078). It is filed as functional.
In a further assay the target is T3, Hexokinase-1 (Homo sapiens, UniProt P19367).
T3 sequence (P19367 whole entry): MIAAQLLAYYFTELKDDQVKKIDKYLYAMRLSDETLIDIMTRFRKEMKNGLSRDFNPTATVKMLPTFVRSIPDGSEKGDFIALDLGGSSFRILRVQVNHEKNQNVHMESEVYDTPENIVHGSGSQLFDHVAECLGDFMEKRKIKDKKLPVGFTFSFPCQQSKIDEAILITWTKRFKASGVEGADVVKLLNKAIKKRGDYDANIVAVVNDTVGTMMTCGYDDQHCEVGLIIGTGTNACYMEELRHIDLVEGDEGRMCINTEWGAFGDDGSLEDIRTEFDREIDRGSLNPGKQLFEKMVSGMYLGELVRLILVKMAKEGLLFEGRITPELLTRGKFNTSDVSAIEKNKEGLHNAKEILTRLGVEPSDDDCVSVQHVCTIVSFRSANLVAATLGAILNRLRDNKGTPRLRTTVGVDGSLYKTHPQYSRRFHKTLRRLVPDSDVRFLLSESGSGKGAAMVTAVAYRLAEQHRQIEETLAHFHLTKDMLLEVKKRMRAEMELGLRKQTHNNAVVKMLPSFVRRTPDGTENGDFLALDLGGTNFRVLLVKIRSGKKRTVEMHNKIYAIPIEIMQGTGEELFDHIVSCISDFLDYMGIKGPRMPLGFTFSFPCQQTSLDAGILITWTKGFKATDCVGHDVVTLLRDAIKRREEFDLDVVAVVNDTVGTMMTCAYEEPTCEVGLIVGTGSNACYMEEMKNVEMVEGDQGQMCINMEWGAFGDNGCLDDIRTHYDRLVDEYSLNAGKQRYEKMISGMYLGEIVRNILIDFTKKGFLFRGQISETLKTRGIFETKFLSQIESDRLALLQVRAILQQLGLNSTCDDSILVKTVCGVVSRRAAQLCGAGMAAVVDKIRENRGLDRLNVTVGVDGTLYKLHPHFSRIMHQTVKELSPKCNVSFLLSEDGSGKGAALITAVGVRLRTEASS
The experiment in a line: SAR analysis of small molecule inhibitors of hexokinase domain containing I (HKDC1) in the hexokinase 1 selectivity assay. [Related pubchem assays (depositor defined):AID493160, AID493190]. It is filed as functional.

Assay [5] addresses T4, Sentrin-specific protease 8 (Homo sapiens, UniProt Q96LD8).
T4 sequence (Q96LD8 whole entry): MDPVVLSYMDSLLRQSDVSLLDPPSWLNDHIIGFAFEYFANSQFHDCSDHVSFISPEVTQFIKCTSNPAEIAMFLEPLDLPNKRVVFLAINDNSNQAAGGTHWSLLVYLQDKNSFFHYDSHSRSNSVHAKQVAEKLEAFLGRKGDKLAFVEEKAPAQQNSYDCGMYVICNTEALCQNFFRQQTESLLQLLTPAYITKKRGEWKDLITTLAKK
It is filed as functional.

Sequence of DNA damage-inducible transcript 3 protein (P35639 whole entry): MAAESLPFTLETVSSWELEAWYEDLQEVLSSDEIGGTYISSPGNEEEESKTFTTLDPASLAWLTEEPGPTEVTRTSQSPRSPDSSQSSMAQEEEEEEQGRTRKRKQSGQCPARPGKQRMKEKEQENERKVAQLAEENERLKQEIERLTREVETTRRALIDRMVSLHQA

Take `Cc1nn(-c2ccccc2)c(Cl)c1CN(C(=O)CCl)c1ccc(Cl)cc1`: the results for the EC50 (in assay [1]; in the assay on BJ) were 1.57 µM (active) and 0.515 µM (active), respectively. In addition, the “Absolute IC50 (CHOP)” value in assay [2] was 10 µM.

With `Oc1ccccc1/C=C/c1noc(-c2ccccc2O)n1`, in assay [3], the 50% inhibitory concentration (IC50) is 43.8 µM (active). Further, in the assay “cells”, the EC50 is > 67.6 µM (inactive).

For `O=C(O)CSc1cc(NS(=O)(=O)c2ccc(Cl)cc2)c2ccccc2c1O`, in assay [4], the cytotoxic concentration (CC50) was 7.78 µM (active). Moreover, on Hexokinase-1, the IC50 is > 80 µM (inactive).

As to `COc1ccccc1N1C(=O)Cc2ccccc2C1=O`, in assay [5], the IC50 was 2.04 µM (active).

One may read the EC50 as the midpoint of the concentration-response curve. A word on the IC50: it is the concentration that inhibits the measured activity by half. As a reminder, the CC50 is the concentration that lowers cell viability or growth by half.
